These results are taken from article PMC5864730, “Peptide ion channel toxins from the bootlace worm, the longest animal on Earth” (Scientific Reports, 2018).

The test system of assay [1] is BgNaV1. Particulars: cited from earlier work. An excerpt:
(§1) The α-1 induced alterations of gating kinetics resemble the effects of other peptide toxins known to be binding to the so-called neurotoxin binding site 3[18],[19]. Such toxins trap the voltage-sensing segment S4 of domain 4 in its inward or dea ...

The test system of assay [2] is DmNaV1. Particulars: cited from earlier work.
Excerpt: as §1

In assay [3] the target is voltage-gated sodium channel NaV1.6 (not stated (mNaV1.6 in the methods, human in the results)) (UniProt Q9WTU3).
Assay [4] addresses Blattella germanica voltage-gated sodium channel BgNaV1 (Blattella germanica) (UniProt O01307).

Positions of bridges follow the written chain, without caps; N, C: chain ends. Non-standard residues stand in square brackets, D forms with d. No end group written: not given here. Hyp = O=C(O)[C@@H]1C[C@@H](O)CN1

As to anthopleurin A: sea anemone toxin, the inhibition of inactivation result in assay [1] and in assay [2] was “complete inhibition of the inactivation” throughout.
For ATX-II: sea anemone toxin, the inhibition of inactivation result in assay [1] and in assay [2] was “complete inhibition of the inactivation” each time.
For the molecule GCIATGSFCTLSKGCCTKNCGWNFKCN[Hyp][Hyp]NQK (disulfide 15-26, 2-16, 9-20) [nemertide α-1], in assay [3], the two-electrode voltage clamp on oocytes: concentration-response curve on NaV1.6, EC50 (Figure S4C) turned out to be 800 nM. In assay [4], this molecule yielded a two-electrode voltage clamp on oocytes: concentration-response curve of the toxin-induced modulation of BgNaV1 currents, EC50 of 8.6 nM.
